Experimental data reported in paper PMC5773577, “Novel Miniature Membrane Active Lipopeptidomimetics against Planktonic and Biofilm Embedded Methicillin-Resistant Staphylococcus aureus” (Scientific Reports, 2018).
Converted amounts (≈) assume the structure as drawn. Read-outs that look alike come from different tables or passages of the source.

What was measured:
Type in all cases: cell-based, Staphylococcus aureus
MRSA ATCC 33591 biofilm = test: Biofilm formation inhibition, viable count assay; settings: 24 h biofilm formation inhibition, 2.5 μg/mL
Procedure: For the experiment, a protocol as described previously was used with slight modifications. Briefly, desired concentrations of the test agents in PBS were added to the wells of a 96-well plate (100 μL). Thereafter, overnight grown stationary phase MRSA ATCC 33591 culture (~4 × 10^5 CFU/mL) in TSB medium (supplemented with 0.25% glucose and 0.5% NaCl) was added to the 96-well plates (100 μL). The plates were incubated at 37 °C without shaking for 24 h. After 24 h, the used medium was discarded and the biofilms formed were washed with PBS once. Subsequently, CV and AB assays were performed to quantify biomass and viability respectively, as described below:
The experiments were repeated on two different days and on each day 6 wells were used for a single treatment. Mean ± S.E. for both CV assay and AB assay is presented here. Corresponding to CV and AB assay the viability of cells upon treatment was also evaluated. Towards this 200 μL PBS was added to washed and treated wells of the 96-well plate and the contents were scraped thoroughly. The resulting bacterial suspension was sonicated briefly, diluted in PBS and plated on BHI agar plates. The agar plates were incubated at 37 °C for 16–24 h and CFUs were counted. Mean ± S.E. data from two independent experiments performed on two different days is shown here.

[1] = test system: 48 h mature MRSA ATCC 33591 biofilms; test: Cell viability of 48 h mature biofilm embedded cells; settings: 24 h treatment at 20 × MIC, mean ± S.D., two experiments, untreated 9.31 ± 0.11
Procedure: For enumeration of cells after 48 h incubation, the medium was aspirated and the biofilms were washed with PBS once. Then 200 μL PBS was added to each well of the chamber slide and the chambers were thoroughly scraped with a pipette tip. The bacterial suspension obtained was plated on BHI agar after dilution in PBS as described above. The resulting CFU/mL from two different days were counted and plotted as mean ± S.D.

MRSA ATCC 33591 [2] = test: microbe, parasite or virus in culture; settings: Staphylococcus aureus, MRSA ATCC 33591, read-out: Minimum inhibitory concentration, MIC
Procedure: An initial inoculum of mid-log phase 10^7 CFU/mL was used and MIC experiment was performed as described earlier. For serum/plasma stability assay a method as described previously was used with slight modifications. Briefly, 50 μL MHB medium containing desired concentration of test peptidomimetics was incubated with 50 µL mice plasma/fetal bovine serum for 3 h at 37 °C. After incubation, a 10 μL aliquot was taken out for MIC determination as described above. For the experiment, mid-log phase 2–5 × 10^5 CFU/mL were used as initial inoculum. For the growth control wells, an equivalent amount of plasma/FBS in the medium was also added to evaluate their effect on the viability of cells. A slight decrease in OD600 of cells incubated with mice plasma was observed compared to untreated growth control in MHB alone. The experiments were repeated on two different days and reproducible MIC values were observed.

[3] = test system: exponential phase MRSA ATCC 33591; test: Bacterial killing kinetics, exponential phase cells in MHB medium; settings: 24 h
Procedure: The kinetics of bacterial killing was determined against MRSA ATCC 33591 strain using drop plate method as described previously with slight modifications[51],[67],[70],[71]. The experiment was performed against exponential phase MRSA in normal medium and stationary phase MRSA in nutrient-depleted medium. For the preparation of nutrient-depleted medium, the primary MRSA ATCC 33591 culture in MHB medium was allowed to grow for 18 h at 37 °C and the cells were removed by centrifugation. The cell pellet was used for stationary phase culture and the spent medium supernatant was used as a nutrient-depleted medium. For obtaining exponential phase cells, MRSA was grown overnight in MHB and 100 μL suspension was used to inoculate 10 mL fresh MHB medium. The cells were incubated at 37 °C for 4–6 h to reach exponential phase.
For the experiments, both exponential and stationary phase cells were re-suspended separately in normal or nutrient-depleted mediums to OD600 = 0.5 (~10^8 CFU/mL). A 25 µL aliquot of this suspension was added to 475 μL of respective medium with or without test peptidomimetics/antibiotics in an eppendorf tube. […] The agar plates were incubated at 37 °C for 16–18 h and the colonies were counted (dilutions having colonies in the range of 10–100 were counted). […]

MRSA ATCC 33591 [4] = test: Membrane depolarization assay, DiSC3(5); settings: for % depolarization relative to melittin control (10 μM, set as 100%): 2 min, DiSC3(5), HEPES-glucose buffer pH 7.2, 37 °C, mean ± S.D., two days
Procedure: The cytoplasmic membrane depolarization in MRSA ATCC 33591 strain was measured using membrane potential sensitive dye 3,3′-dipropylthiacarbocyanine iodide (DiSC3(5)) with a protocol described previously with slight modifications[23],[48]. Briefly, exponential phase cells grown in MHB were harvested by centrifugation, washed and re-suspended in respiration buffer (5 mM HEPES, 20 mM glucose, pH 7.2) to 2.5 × 10^6 CFU/mL. The cells were divided into 1 mL aliquots and incubated with 3.6 μM of DiSC3(5) (in dark) for 30 min to get steady baseline fluorescence intensity. The dye-loaded cells (800 μL) were then treated with peptidomimetics at respective 1× and 4× MIC concentrations (2–20 μL) and consequent fluorescence increase after 2 min of addition was measured in a Shimadzu RF-5301 PC spectrofluorimeter. As controls IL, melittin and VAN were also assayed under identical conditions. The samples were excited at 622 nm and emission was recorded between 650–700 nm with 3 nm slit width for both excitation and emission. The temperature was maintained at 37 °C throughout the experiment. Depolarization kinetics was measured at 4 × MIC of test agents for 5 min. The experiment was repeated on two different days and for Fig. 3 panel (A) mean ± S.D. data for % depolarization relative to melittin control (10 μM) set as 100% is presented here. For panel (B) representative data is shown here. The viability of dye-loaded cells corresponding to depolarization experiment at 4 × MIC concentration was also measured by plating the diluted aliquots onto BHI agar plates.

## CN[C@H](CC(C)C)C(=O)N[C@H]1C(=O)N[C@@H](CC(N)=O)C(=O)N[C@H]2C(=O)N[C@H]3C(=O)N[C@H](C(=O)N[C@H](C(=O)O)c4cc(O)cc(O)c4-c4cc3ccc4O)[C@H](O)c3ccc(c(Cl)c3)Oc3cc2cc(c3O[C@@H]2O[C@H](CO)[C@@H](O)[C@H](O)[C@H]2O[C@H]2C[C@](C)(N)[C@H](O)[C@H](C)O2)Oc2ccc(cc2Cl)[C@H]1O [VAN, vancomycin]
MRSA ATCC 33591 biofilm
  log reduction in viability compared to 24 h growth control: > 3 log
MRSA ATCC 33591 biofilm; mean ± S.E., two experiments, untreated 7.59 ± 0.08
  remaining viable count: 1.44 ± 1.44 log CFU/mL
[1]
  number of surviving cells: 9.08 ± 0.11 log CFU/mL
MRSA ATCC 33591 [2]; after 3 h pre-incubation at 37 °C with fetal bovine serum (50%, v/v), inoculum 2–5 × 10^5 CFU/mL, repeated on two days
  MIC: 1.4 µg/mL (≈ 0.966 µM)
MRSA ATCC 33591 [2]; after 3 h pre-incubation at 37 °C with mice plasma (50%, v/v), inoculum 2–5 × 10^5 CFU/mL, repeated on two days
  MIC: 1.4 µg/mL (≈ 0.966 µM)
MRSA ATCC 33591 [2]; initial inoculum 10^7 CFU/mL, mid-log phase
  MIC: 2.8 µg/mL (≈ 1.93 µM)
[3]; 4 × MIC
  log reduction in CFU/mL: ~ 2.3 log
[3]; 10 × MIC
  log reduction in CFU/mL: ~ 2.3 log
MRSA ATCC 33591 [4]; 4 × MIC, monitored for 5 min
  Depolarization kinetics: time to increase in relative fluorescence intensity (RFI): RFI values similar to untreated control cells
MRSA ATCC 33591 [4]; at 4 × MIC
  % depolarization relative to melittin control (10 μM, set as 100%): 4.7 ± 4.1%
MRSA ATCC 33591 [4]; at MIC
  % depolarization relative to melittin control (10 μM, set as 100%): 2.9 ± 4.8%
